In ChEMBL document CHEMBL1201862, “PubChem BioAssay data set” (2004):
The source made the active and inactive calls.

Assays:
HEK293 [1] = assay: inhibition of NOD1-driven NF-kB reporter – cell-based, luminescence, uHTS, primary screen (AID 1578); assay type: functional; details: Homo sapiens
HEK293 [2] = assay: cells; assay type: functional, cell-based; details: Homo sapiens
HEK293 [3] = assay: cells; assay type: functional, cell-based; details: Homo sapiens; remark: listed apart in the source
HEK293 [4] = assay: NOD2 signaling inhibitors in MDP-stimulated cells, cell-based, uHTS, luminescence (AID 2001); assay type: functional; details: Homo sapiens
[5] = biological target: Heat shock protein HSP 90-alpha (Homo sapiens, UniProt P07900); assay type: functional, organism-based
SUMO E1/E2 = SUMO E1/E2 (Homo sapiens, UniProt P63279+Q9UBE0+Q9UBT2); assay: SAR analysis of SUMOylation using HTRF in an in-Vitro dose response assay. [Related pubchem assays (depositor defined):AID2006, AID2011, AID2018, AID2069, AID2658]; assay type: functional
[6] = decrease of insulin promoter-GFP reporter – imaging, high-content screening, mouse beta cells (AID 1628); assay type: functional; details: MIN6
[7] = MIN6 cell viability loss – mouse insulinoma, cytotoxicity control, dose response (AID 2122); assay type: functional;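 further: confirmatory high-throughput counterscreen run to flag cytotoxic compounds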
Cytochrome P450 2D6 = Cytochrome P450 2D6 (Homo sapiens, UniProt P10635);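 further: CYP2D6 member of a cytochrome P450 panel assay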
Cytochrome P450 1A2 = biological target: T1, Cytochrome P450 1A2 (Homo sapiens, UniProt P05177);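 further: PubChem cytochrome P450 panel assay, CYP1A2 panel member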
T1 sequence (P05177 whole entry): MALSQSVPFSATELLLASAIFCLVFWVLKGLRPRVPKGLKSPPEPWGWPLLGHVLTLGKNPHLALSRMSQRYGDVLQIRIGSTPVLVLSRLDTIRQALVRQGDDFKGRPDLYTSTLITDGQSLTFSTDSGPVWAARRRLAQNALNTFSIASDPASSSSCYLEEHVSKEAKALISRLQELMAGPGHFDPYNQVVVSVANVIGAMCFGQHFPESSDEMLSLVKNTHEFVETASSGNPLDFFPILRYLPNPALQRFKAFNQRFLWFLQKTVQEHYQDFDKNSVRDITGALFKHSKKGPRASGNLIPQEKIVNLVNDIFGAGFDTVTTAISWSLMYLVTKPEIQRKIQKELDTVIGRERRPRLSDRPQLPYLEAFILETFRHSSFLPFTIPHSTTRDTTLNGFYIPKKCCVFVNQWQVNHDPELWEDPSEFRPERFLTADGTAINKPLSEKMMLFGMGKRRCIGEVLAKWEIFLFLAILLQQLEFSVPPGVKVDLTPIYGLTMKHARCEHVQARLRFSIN

Cytochrome P450 3A4 = Cytochrome P450 3A4 (Homo sapiens, UniProt P08684);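 further: CYP3A4 tested as one member of a cytochrome P450 panel screen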
[8] = viability of uninfected HEp-2 cells – cell-based, HTS, cytotoxicity control for RSV inhibitor project, dose response (AID 2410); assay type: functional; details: human respiratory syncytial virus
[9] = viability of PTEN-deleted HCT116 cells – cell-based, HCT116 PTEN knockout, dose response (AID 1047); assay type: functional;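 further: HCT116 colon tumor cells with PTEN knocked out; cells exposed to compound for 60 hours before readout; potency for loss of cell viability measured by luminescence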
[10] = viability of HCT116 lacking mutant beta-catenin – cell-based, human colon tumor, dose response (AID 1045); assay type: functional;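 further: HCT116 colon tumor cells with beta catenin knocked out; cells exposed to compound for 60 hours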
Bcl-2-related protein A1 = biological target: T2, Bcl-2-related protein A1 (Mus musculus, UniProt Q07440); assay type: functional;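 further: confirmatory dose–response counterscreen on Bfl-1, used to check hits from a UBC13 polyubiquitin inhibitor campaign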
T2 sequence (Q07440 whole entry): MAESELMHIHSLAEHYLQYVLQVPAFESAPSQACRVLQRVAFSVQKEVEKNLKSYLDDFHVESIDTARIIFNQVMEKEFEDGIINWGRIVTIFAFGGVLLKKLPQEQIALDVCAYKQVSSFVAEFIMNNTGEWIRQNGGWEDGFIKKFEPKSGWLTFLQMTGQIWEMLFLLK

[11] = biological target: T3, Ubiquitin-conjugating enzyme E2 N (Homo sapiens, UniProt P61088); assay type: functional
T3 sequence (P61088 whole entry): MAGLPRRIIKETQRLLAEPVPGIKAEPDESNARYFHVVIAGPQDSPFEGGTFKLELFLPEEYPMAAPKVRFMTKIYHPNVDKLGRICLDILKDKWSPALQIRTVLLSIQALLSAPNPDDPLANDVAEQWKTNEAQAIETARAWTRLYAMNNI

[12] = biological target: T3, Ubiquitin-conjugating enzyme E2 N; assay type: functional; remark: listed apart in the source
[13] = biological target: T4, DNA repair protein RAD52 homolog (Homo sapiens, UniProt P43351); assay type: functional, biochemical
T4 sequence (P43351 whole entry): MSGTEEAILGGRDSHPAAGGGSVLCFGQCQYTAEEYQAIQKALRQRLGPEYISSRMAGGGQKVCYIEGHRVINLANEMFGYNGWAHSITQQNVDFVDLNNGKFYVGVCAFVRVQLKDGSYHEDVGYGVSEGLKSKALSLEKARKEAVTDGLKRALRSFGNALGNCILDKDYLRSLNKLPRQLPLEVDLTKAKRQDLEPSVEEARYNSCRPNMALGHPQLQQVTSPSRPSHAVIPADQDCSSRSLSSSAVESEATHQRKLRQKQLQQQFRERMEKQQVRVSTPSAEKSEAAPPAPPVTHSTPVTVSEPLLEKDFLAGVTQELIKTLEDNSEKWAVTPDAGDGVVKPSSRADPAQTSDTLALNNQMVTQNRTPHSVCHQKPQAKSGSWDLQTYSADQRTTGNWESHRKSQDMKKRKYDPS

Sequence of Cytochrome P450 3A4 (P08684 whole entry): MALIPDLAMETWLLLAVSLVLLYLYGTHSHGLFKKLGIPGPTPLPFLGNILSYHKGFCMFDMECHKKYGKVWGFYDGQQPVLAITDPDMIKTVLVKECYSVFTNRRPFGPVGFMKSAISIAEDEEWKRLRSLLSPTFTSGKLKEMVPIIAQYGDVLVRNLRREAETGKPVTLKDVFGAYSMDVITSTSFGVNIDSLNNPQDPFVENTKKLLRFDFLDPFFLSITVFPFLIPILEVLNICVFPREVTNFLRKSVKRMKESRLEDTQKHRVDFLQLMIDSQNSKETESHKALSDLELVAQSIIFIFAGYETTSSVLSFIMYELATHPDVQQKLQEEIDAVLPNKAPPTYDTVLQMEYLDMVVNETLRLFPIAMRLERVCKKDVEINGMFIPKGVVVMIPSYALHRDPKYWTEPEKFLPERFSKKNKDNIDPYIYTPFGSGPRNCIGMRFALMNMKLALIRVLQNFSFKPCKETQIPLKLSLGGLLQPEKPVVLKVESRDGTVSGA
Sequence of SUMO E1/E2 (Q9UBE0 whole entry): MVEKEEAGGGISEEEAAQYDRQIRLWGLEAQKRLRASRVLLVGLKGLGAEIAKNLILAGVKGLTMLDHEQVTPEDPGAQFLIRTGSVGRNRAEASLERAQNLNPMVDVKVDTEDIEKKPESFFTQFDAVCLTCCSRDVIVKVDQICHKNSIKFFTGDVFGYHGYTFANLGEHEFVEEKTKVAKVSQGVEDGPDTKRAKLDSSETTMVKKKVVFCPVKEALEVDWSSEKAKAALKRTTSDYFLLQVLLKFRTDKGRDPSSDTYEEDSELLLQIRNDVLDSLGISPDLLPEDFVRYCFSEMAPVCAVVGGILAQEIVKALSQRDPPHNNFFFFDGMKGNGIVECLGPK
Sequence of SUMO E1/E2 (Q9UBT2 whole entry): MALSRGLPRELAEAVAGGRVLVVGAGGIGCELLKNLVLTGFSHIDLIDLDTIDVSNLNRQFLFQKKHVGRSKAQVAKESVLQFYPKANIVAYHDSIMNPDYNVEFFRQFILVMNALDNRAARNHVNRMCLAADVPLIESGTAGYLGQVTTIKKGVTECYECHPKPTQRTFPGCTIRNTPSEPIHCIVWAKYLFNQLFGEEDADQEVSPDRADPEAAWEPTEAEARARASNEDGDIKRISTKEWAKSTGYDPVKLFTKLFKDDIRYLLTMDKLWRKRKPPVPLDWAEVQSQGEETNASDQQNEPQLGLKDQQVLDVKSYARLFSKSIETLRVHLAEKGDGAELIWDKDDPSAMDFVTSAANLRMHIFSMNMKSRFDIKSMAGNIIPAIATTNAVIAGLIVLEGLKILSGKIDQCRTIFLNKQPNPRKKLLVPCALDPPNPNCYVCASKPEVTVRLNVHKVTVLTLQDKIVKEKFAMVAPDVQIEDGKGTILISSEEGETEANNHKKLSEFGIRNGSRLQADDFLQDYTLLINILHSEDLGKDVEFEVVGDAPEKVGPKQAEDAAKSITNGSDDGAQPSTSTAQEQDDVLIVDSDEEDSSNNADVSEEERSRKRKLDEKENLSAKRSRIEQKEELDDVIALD
Sequence of SUMO E1/E2 (P63279 whole entry): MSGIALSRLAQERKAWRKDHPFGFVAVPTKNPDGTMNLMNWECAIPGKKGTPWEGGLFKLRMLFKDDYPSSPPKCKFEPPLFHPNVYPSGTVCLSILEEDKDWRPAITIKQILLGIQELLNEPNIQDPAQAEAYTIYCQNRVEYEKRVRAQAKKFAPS
Sequence of Cytochrome P450 2D6 (P10635 whole entry): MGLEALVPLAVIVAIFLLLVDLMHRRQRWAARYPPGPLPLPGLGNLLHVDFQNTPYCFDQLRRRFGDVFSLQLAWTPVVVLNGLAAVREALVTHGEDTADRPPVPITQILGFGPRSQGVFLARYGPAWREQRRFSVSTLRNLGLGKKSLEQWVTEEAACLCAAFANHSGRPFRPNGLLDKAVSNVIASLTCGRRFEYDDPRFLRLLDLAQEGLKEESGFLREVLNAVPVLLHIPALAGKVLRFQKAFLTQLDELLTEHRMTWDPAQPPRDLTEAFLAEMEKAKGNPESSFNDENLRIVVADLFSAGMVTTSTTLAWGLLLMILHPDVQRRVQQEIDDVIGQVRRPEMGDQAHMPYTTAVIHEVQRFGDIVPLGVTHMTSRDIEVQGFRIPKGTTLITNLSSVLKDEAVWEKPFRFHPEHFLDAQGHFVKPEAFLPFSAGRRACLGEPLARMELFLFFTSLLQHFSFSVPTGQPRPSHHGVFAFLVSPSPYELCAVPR

CCN(CC)S(=O)(=O)c1cccc(NC(=O)c2ccc(Br)cc2)c1
EC50 (HEK293 [1]): 11.6 µM (active)
IC50 (HEK293 [2]): 10.1 µM (active)
IC50 (HEK293 [3]): 14.1 µM (active)
IC50 (HEK293 [4]): 7.75 µM (active)
AC50 [5]: 3.55 µM (active)

O=C1c2oc3ccccc3c(=O)c2C(c2ccccc2)N1c1nccs1 (stereo not given)
IC50 (SUMO E1/E2): 22.4 µM (active)

S=C(NCCC1=CCCCC1)NCc1ccco1
IC50 [6]: 2.95 µM (active)
IC50 [7]: 2.64 µM (active)

COCCCNC(=O)c1ccc2c(=O)n(CC3CCCO3)c(=S)[nH]c2c1 (stereo not given)
AC50 (Cytochrome P450 2D6): 0.178 µM (inconclusive)
AC50 (Cytochrome P450 1A2): 20 µM (inconclusive)
AC50 (Cytochrome P450 3A4): inconclusive

Cc1ccc(C)c(OCC(O)CN2CCN(CCN3C(=O)c4cccc5cccc(c45)C3=O)CC2)c1 (stereo not given)
CC50 [8]: 15.8 µM (active)
EC50 [9]: 6.21 µM (active)
EC50 [10]: 3.71 µM (active)
IC50 (Bcl-2-related protein A1): > 20 µM (inactive)
IC50 [11]: 7.55 µM (active)
IC50 [12]: 9.34 µM (active)
AC50 [13]: 7.35 µM (active)

CCCN(CCc1ccccc1)[C@H]1CCc2c(O)cccc2C1
AC50 (Cytochrome P450 1A2): 12.6 µM (inconclusive)
AC50 (Cytochrome P450 3A4): inconclusive
